The results in this text go back to patent US11584747B2, “Substituted pyridopyrimidinonyl compounds useful as T cell activators” (BRISTOL-MYERS SQUIBB COMPANY, priority 2019, dated 2023).

In one test the target is human DGKζ (Homo sapiens (Human), UniProt Q13574). Kind of test: DGKζ LIPGLO assay (extruded liposome substrate, ADP-Glo luminescence). As to conditions: liposome (LIPGLO) assay; read-out: DGK zeta (liposome assay) IC50. The format is biochemical. (ADP-Glo turns the ADP formed in a reaction into a luminescent signal.)
human DGKζ, sequence (Q13574 other isoform, or with tags, fused parts or gaps): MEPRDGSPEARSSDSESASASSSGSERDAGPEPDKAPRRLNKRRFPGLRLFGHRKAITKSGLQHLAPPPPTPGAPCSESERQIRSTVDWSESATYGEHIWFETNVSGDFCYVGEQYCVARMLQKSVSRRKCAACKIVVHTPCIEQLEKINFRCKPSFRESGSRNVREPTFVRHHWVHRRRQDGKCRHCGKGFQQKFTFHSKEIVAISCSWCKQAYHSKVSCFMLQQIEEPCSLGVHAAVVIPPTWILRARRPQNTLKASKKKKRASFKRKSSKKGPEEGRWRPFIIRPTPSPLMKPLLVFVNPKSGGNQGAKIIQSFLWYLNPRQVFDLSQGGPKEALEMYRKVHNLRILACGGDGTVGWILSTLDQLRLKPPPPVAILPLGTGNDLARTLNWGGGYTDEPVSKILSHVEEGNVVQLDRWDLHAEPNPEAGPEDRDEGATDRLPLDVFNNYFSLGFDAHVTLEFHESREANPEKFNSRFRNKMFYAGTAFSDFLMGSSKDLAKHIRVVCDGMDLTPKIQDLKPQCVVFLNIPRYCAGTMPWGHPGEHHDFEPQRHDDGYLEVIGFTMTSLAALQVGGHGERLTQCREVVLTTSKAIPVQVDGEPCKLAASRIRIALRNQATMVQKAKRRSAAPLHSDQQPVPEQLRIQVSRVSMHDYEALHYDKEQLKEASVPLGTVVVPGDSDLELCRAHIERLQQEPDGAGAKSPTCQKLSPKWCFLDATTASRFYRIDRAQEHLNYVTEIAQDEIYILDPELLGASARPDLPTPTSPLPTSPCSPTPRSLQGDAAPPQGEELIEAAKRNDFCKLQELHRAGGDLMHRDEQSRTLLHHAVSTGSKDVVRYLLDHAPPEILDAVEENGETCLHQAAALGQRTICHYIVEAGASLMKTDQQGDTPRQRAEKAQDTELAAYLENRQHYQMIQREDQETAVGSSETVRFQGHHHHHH
Test [1] has as its target T1, human DGKα (Homo sapiens (Human), UniProt P23743). Kind of test: DGKα ADPGLO assay (detergent/lipid micelle substrate). Format: biochemical. Conditions: ADPGLO assay; read-out: DGK alpha ADPGLO IC50. As for the experimental part:
DGK Alpha ADPGLO (Truncated) IC50 (uM)
The detergent/lipid micelle was prepared by combining 15 g phosphatidylserine (Avanti 840035P) and 1 g diacylglycerol (8008110) and dissolving into 150 mL chloroform in a 2 L round bottom flask. Chloroform was removed under high vacuum by rotary evaporation. […] The lipid/detergent solution was split into 5 mL aliquots and stored at −80° C.

Test [2] relates to human venous whole blood (IFN-γ). Kind of test: Human whole blood IFN-γ assay. The format is cell-based. Conditions: human whole blood, anti-CD3 plus anti-CD28 stimulation, 24 hours, read-out: IFN-γ Whole Blood EC50. Here is the method: Human venous whole blood (22.5 μL per well), obtained from healthy donors, was pre-treated with compounds for one hour at 37° C. in a humidified 95% air/5% CO2 incubator. The blood was stimulated with 2.5 μL anti-human CD3 and anti-CD28 mAb at a final concentration of 1 μg/mL each for 24 hours at 37° C. IFN-γ in the supernatants was measured using AlphLISA kit (Cat #AL217).

The test system of another test is whole blood (pERK). Kind of test: pERK Whole Blood. The format is cell-based.
Test [3] deals with T1, human DGKα. Kind of test: DGKα LIPGLO assay (extruded liposome substrate, ADP-Glo luminescence). The format is biochemical. As to conditions: liposome (LIPGLO) assay; read-out: DGK alpha (liposome assay) IC50.

Like-named read-outs stand apart in the source and are kept apart here.

T1 sequence (P23743 whole entry, looked up, the tested form may be a part): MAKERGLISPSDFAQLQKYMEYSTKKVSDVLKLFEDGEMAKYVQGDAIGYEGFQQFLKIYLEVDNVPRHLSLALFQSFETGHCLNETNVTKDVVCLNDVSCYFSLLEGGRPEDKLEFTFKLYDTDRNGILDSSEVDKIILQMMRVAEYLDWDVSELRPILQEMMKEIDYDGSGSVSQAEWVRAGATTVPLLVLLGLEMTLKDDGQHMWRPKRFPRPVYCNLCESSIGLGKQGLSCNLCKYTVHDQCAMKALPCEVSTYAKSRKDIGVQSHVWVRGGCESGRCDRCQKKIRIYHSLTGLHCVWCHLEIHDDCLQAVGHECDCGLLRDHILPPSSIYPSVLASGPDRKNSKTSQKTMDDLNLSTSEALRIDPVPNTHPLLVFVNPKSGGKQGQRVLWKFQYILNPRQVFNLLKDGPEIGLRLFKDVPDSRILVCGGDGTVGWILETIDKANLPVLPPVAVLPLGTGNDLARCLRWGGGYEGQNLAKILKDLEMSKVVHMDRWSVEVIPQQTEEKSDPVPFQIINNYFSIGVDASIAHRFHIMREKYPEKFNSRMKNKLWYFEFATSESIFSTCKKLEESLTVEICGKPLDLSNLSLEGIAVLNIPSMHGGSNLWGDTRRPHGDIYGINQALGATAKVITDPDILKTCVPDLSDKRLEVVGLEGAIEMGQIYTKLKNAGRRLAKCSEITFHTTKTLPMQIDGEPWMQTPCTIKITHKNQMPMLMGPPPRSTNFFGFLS

Regarding `CC[C@H]1CN(C(c2ccc(F)cc2)c2noc(C3CC3)n2)[C@H](CC)CN1c1nc(=O)n(C)c2ccc(C#N)nc12` (single isomer, unassigned) [Example 371], the IC50 (commonly the point on the concentration scale where inhibition reaches its midpoint) worked out at 100 nM at human DGKζ and 13 nM on human DGKα [1]. Besides, the EC50 – broadly, the concentration needed to bring the measured effect to its halfway point – came out at 190 nM in test [2] (Homo sapiens, 24 h) and 3.32 µM in the test on whole blood (pERK).

Regarding `CC(c1ccc(CN2CCOC(C)(C)C2)cc1)N1C[C@H](C)N(c2nc(=O)n(C)c3ccc(C#N)nc23)C[C@H]1C` (single isomer, unassigned) [Example 385], the IC50 on human DGKζ was determined as 43 nM; on human DGKα [1], 12 nM. In addition, the EC50 in test [2] was determined as 130 nM; in the test with whole blood (pERK) it was 0.24 µM.

Turning to `CCC(c1ccc(OC)cc1)N1C[C@H](C)N(c2nc(=O)n(C)c3ccc(C#N)nc23)C[C@H]1CC` (stereo partly drawn) [Example 304, 4-((2S,5R)-5-ethyl-4-(1-(4-methoxyphenyl)propyl)-2-methylpiperazin-1-yl)-1-methyl-2-oxo-1,2-dihydropyrido[3,2-d]pyrimidine-6-carbonitrile], the IC50 at human DGKζ was 14 nM; at human DGKα [1], 12 nM. The EC50 came to 16 nM in test [2] and 0.11 µM in the test on whole blood (pERK).

Consider `CCC(c1ccc(OC)cc1)N1C[C@H](C)N(c2nc(=O)n(C)c3ccc(C#N)nc23)C[C@H]1CC` (stereo partly drawn) [Example 305, 4-((2S,5R)-5-ethyl-4-(1-(4-methoxyphenyl)propyl)-2-methylpiperazin-1-yl)-1-methyl-2-oxo-1,2-dihydropyrido[3,2-d]pyrimidine-6-carbonitrile], for which the IC50 is 1400 nM on human DGKζ and 62 nM at human DGKα [1]. Moreover, the figures for the EC50 (in test [2]; in the test on whole blood (pERK)) were 11700 nM and 3.67 µM, respectively.

Consider `CCC(c1ccc(OCC2CC2)cc1)N1C[C@H](C)N(c2nc(=O)n(C)c3ccc(C#N)nc23)C[C@H]1CC` (stereo partly drawn) [Example 308, 4-((2S,5R)-4-(1-(4-(cyclopropylmethoxy)phenyl)propyl)-5-ethyl-2-methylpiperazin-1-yl)-1-methyl-2-oxo-1,2-dihydropyrido[3,2-d]pyrimidine-6-carbonitrile], for which the IC50 on human DGKζ stood at 39 nM; on human DGKα [1] it was 62 nM. In addition, the EC50 in test [2] was 34 nM; in the test with whole blood (pERK), 0.89 µM.

With `CCC(c1ccc(OC(C)C)cc1)N1C[C@H](C)N(c2nc(=O)n(C)c3ccc(C#N)nc23)C[C@H]1CC` (stereo partly drawn) [Example 333, 4-((2 S,5R)-5-ethyl-4-(1-(4-isopropoxyphenyl)propyl)-2-methylpiperazin-1-yl)-1-methyl-2-oxo-1,2-dihydropyrido[3,2-d]pyrimidine-6-carbonitrile], the values for the IC50 on human DGKζ and at human DGKα [1] were 72 nM and 90 nM, respectively. Moreover, the values for the EC50 (in test [2]; in the test on whole blood (pERK)) were 120 nM and 0.1 µM, respectively.

With `CCC(c1ccc(OC(C)C)cc1)N1C[C@H](C)N(c2nc(=O)n(C)c3ccc(C#N)nc23)C[C@H]1CC` (stereo partly drawn) [Example 334, 4-((2 S,5R)-5-ethyl-4-(1-(4-isopropoxyphenyl)propyl)-2-methylpiperazin-1-yl)-1-methyl-2-oxo-1,2-dihydropyrido[3,2-d]pyrimidine-6-carbonitrile], the half-maximal inhibitory concentration (IC50) at human DGKζ was 530 nM; on human DGKα [1] it was 460 nM. The concentration giving a half-maximal response (EC50) came out at 730 nM in test [2] and 20 µM in the test with whole blood (pERK).

Consider `CCC(c1nc(C2CC2)no1)N1C[C@H](CC)N(c2nc(=O)n(C)c3ccc(C#N)nc23)C[C@H]1CC` (stereo partly drawn) [Example 363, 4-((2S,5R)-4-(1-(3-cyclopropyl-1,2,4-oxadiazol-5-yl)propyl)-2,5-diethylpiperazin-1-yl)-1-methyl-2-oxo-1,2-dihydropyrido[3,2-d]pyrimidine-6-carbonitrile], for which the IC50 came to 32 nM on human DGKζ and 17 nM at human DGKα [1]. For the same molecule, the EC50 in test [2] (Homo sapiens, 24 h) stood at 160 nM; with whole blood (pERK), 0.024 µM.

Turning to `CC(c1ccc(CN2CCC(F)(F)CC2)cc1)N1C[C@H](C)N(c2nc(=O)n(C)c3ccc(C#N)nc23)C[C@H]1C` (stereo partly drawn) [Example 390, 4-((2S,5R)-4-(1-(4-((4,4-difluoropiperidin-1-yl)methyl)phenyl)ethyl)-2,5-dimethylpiperazin-1-yl)-1-methyl-2-oxo-1,2-dihydropyrido[3,2-d]pyrimidine-6-carbonitrile], the IC50 at human DGKζ was determined as 180 nM; at human DGKα [1], 97 nM. For the same molecule, the EC50 in test [2] is 40 nM; in the test with whole blood (pERK), 20 µM.

Take `CC(c1ccc(CN2CCC(F)(F)CC2)cc1)N1C[C@H](C)N(c2nc(=O)n(C)c3ccc(C#N)nc23)C[C@H]1C` (stereo partly drawn) [Example 391, 4-((2S,5R)-4-(1-(4-((4,4-difluoropiperidin-1-yl)methyl)phenyl)ethyl)-2,5-dimethylpiperazin-1-yl)-1-methyl-2-oxo-1,2-dihydropyrido[3,2-d]pyrimidine-6-carbonitrile]: the IC50 was 1340 nM on human DGKζ and 2020 nM on human DGKα [1]. Moreover, the EC50 was found to be 720 nM in test [2] and 1.13 µM in the test with whole blood (pERK).

Take `CC(c1ccc(C(F)(F)F)cc1)N1C[C@H](C)N(c2nc(=O)n(C)c3ccc(Cl)nc23)C[C@H]1CN=[N+]=[N-]` (stereo partly drawn) [Example 402, 4-((2S,5S)-5-(Azidomethyl)-2-methyl-4-(1-(4-(trifluoromethyl)phenyl)ethyl)piperazin-1-yl)-6-chloro-1-methylpyrido[3,2-d]pyrimidin-2(1H)-one]: the IC50 at human DGKα [3] came out at 49.5 µM; at human DGKζ, 4760 nM. Further, the EC50 in test [2] (Homo sapiens, 24 h) worked out at 1390 nM; with whole blood (pERK), 3.67 µM.

Regarding `COC(=O)NC[C@@H]1CN(c2nc(=O)n(C)c3ccc(C#N)nc23)[C@@H](C)CN1C(C)c1ccc(C(F)(F)F)cc1` (some centres unmarked) [Example 405], the IC50 on human DGKα [3] was 13.6 µM; on human DGKζ, 110 nM. For the same molecule, the EC50 in test [2] (Homo sapiens, 24 h) worked out at 1190 nM; in the test with whole blood (pERK) it was 2.58 µM.

Take `CC[C@H]1CN(C(C)c2ccc(C(F)(F)F)cc2)[C@H](CC)CN1c1nc(=O)n(C)c2ccc(OCCN(C)C)nc12` (stereo partly drawn) [Example 431, 4-((2S,5R)-2,5-diethyl-4-(1-(4-(trifluoromethyl)phenyl)ethyl)piperazin-1-yl)-6-(2-(dimethylamino)ethoxy)-1-methylpyrido[3,2-d]pyrimidin-2(1H)-one]: the IC50 on human DGKζ and at human DGKα [1] was 250000 nM in each case. Also, the EC50 is 20000 nM in test [2] (Homo sapiens, 24 h) and 20 µM in the test on whole blood (pERK).

On to `CCC(c1ccc(C(F)(F)F)cc1)N1C[C@H](CC)N(c2nc(=O)n(C)c3ccc(OC)nc23)C[C@H]1CC` (stereo partly drawn) [Example 435, 4-((2S,5R)-2,5-diethyl-4-(1-(4-(trifluoromethyl)phenyl)propyl)piperazin-1-yl)-6-methoxy-1-methylpyrido[3,2-d]pyrimidin-2(1H)-one], for which the IC50 on human DGKζ turned out to be 5510 nM; on human DGKα [1] it was 1900 nM. Further, the EC50 in test [2] amounted to 4160 nM; in the test with whole blood (pERK) it was 7.29 µM.

On to `C[C@@H]1CN(c2nc(=O)n(C)c3ccc(C#N)nc23)[C@@H](C)CN1C(c1ccc(F)cc1)C12CC(C(F)(F)F)(C1)C2` (stereo partly drawn) [Example 450, 4-((2S,5R)-4-((4-fluorophenyl)(3-(trifluoromethyl)bicyclo[1.1.1]pentan-1-yl)methyl)-2,5-dimethylpiperazin-1-yl)-1-methyl-2-oxo-1,2-dihydropyrido[3,2-d]pyrimidine-6-carbonitrile], for which the IC50 at human DGKζ was 370 nM; on human DGKα [1], 200 nM. In the test with whole blood (pERK), this molecule returned an EC50 of 20 µM.
